From ChEMBL document CHEMBL1201862, “PubChem BioAssay data set” (2004)
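Compound exposure: 48 hours, 5 concentrations, 96-well plates. GI50 = concentration required for 50% inhibition of growth.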 The source made the active and inactive calls. No stated cut-off is given here; in the data, active = GI50 up to about 1.1 µM and inactive = higher.

Experiments:
Assay in all cases: NCI tumour cell line growth inhibition, 48 h
A498 = test system: A498
A549 = test system: A549
CCRF-CEM = test system: CCRF-CEM
HCC 2998 = test system: HCC 2998
HT-29 = test system: HT-29
Hs-578T = test system: Hs-578T
IGROV-1 = test system: IGROV-1
KM-20L2 = test system: KM-20L2
MOLT-4 = test system: MOLT-4
Malme-3M = test system: Malme-3M
NCI-H226 = test system: NCI-H226
NCI-H23 = test system: NCI-H23
NCI-H460 = test system: NCI-H460
SF-295 = test system: SF-295
SK-MEL-5 = test system: SK-MEL-5
SR = test system: SR
SW-620 = test system: SW-620
TK-10 = test system: TK-10
U-251 = test system: U-251
UO-31 = test system: UO-31

COc1cccc2c1C(=O)c1c(O)c3c(c(O)c1C2=O)C[C@@](O)(C(C)=O)C[C@@H]3OC1CC(N(C)C)C(O)C(C)O1 (stereo partly drawn)
GI50 (A498): 0.00464 µM (active) | GI50 (A549): 0.00617 µM (active) | GI50 (CCRF-CEM): 0.00412 µM (active) | GI50 (HCC 2998): 0.0333 µM (active) | GI50 (HT-29): 0.00356 µM (active) | GI50 (Hs-578T): 0.000123 µM (active) | GI50 (IGROV-1): 0.00447 µM (active) | GI50 (KM-20L2): 0.00603 µM (active) | GI50 (MOLT-4): 0.00309 µM (active) | GI50 (Malme-3M): 0.0405 µM (active) | GI50 (NCI-H226): 0.029 µM (active) | GI50 (NCI-H23): 0.00508 µM (active) | GI50 (NCI-H460): 0.00383 µM (active) | GI50 (SF-295): 0.00425 µM (active) | GI50 (SK-MEL-5): 0.00236 µM (active) | GI50 (SR): 0.00135 µM (active) | GI50 (SW-620): 0.00348 µM (active) | GI50 (TK-10): 0.00514 µM (active) | GI50 (U-251): 0.00425 µM (active) | GI50 (UO-31): 0.00371 µM (active)

Nc1ccc2c(c1)CN1C(=O)c3ccccc3C1=N2 [DANIQUIDONE]
GI50 (A498): 43.1 µM (inactive) | GI50 (A549): 31 µM (inactive) | GI50 (CCRF-CEM): 10.7 µM (inactive) | GI50 (HCC 2998): 63 µM (inactive) | GI50 (HT-29): 69.3 µM (inactive) | GI50 (Hs-578T): 21.3 µM (inactive) | GI50 (IGROV-1): 34.2 µM (inactive) | GI50 (KM-20L2): 59 µM (inactive) | GI50 (MOLT-4): 3.77 µM (inactive) | GI50 (Malme-3M): 67 µM (inactive) | GI50 (NCI-H226): 45.9 µM (inactive) | GI50 (NCI-H23): 69 µM (inactive) | GI50 (NCI-H460): 15.5 µM (inactive) | GI50 (SF-295): 12.9 µM (inactive) | GI50 (SK-MEL-5): 16.8 µM (inactive) | GI50 (SR): 18.7 µM (inactive) | GI50 (SW-620): 24.5 µM (inactive) | GI50 (TK-10): 36.4 µM (inactive) | GI50 (U-251): 27.7 µM (inactive) | GI50 (UO-31): 27.3 µM (inactive)

O=c1c2ccccc2sc2nc(CCl)nn12
GI50 (A498): 2.64 µM (inactive) | GI50 (A549): 31 µM (inactive) | GI50 (CCRF-CEM): > 100 µM (inactive) | GI50 (HCC 2998): 13.3 µM (inactive) | GI50 (HT-29): 12.4 µM (inactive) | GI50 (Hs-578T): 2.17 µM (inactive) | GI50 (IGROV-1): 17.2 µM (inactive) | GI50 (KM-20L2): 14.5 µM (inactive) | GI50 (MOLT-4): 97.5 µM (inactive) | GI50 (Malme-3M): 18.5 µM (inactive) | GI50 (NCI-H226): > 100 µM (inactive) | GI50 (NCI-H23): 7.59 µM (inactive) | GI50 (NCI-H460): 5.64 µM (inactive) | GI50 (SF-295): 43.1 µM (inactive) | GI50 (SK-MEL-5): > 100 µM (inactive) | GI50 (SR): 10.9 µM (inactive) | GI50 (SW-620): 12.7 µM (inactive) | GI50 (TK-10): 10.4 µM (inactive) | GI50 (U-251): > 96.8 µM (inactive) | GI50 (UO-31): 8.28 µM (inactive)

CCCCCCCCCCCCCCCCCC(=O)Nc1ccn(C2OC(CO)C(O)C2O)c(=O)n1 (stereo not drawn)
GI50 (A498): 15.3 µM (inactive) | GI50 (A549): 2.99 µM (inactive) | GI50 (CCRF-CEM): 0.097 µM (active) | GI50 (HCC 2998): 8.36 µM (inactive) | GI50 (HT-29): 20.1 µM (inactive) | GI50 (Hs-578T): > 100 µM (inactive) | GI50 (IGROV-1): 39 µM (inactive) | GI50 (KM-20L2): 32.1 µM (inactive) | GI50 (MOLT-4): 0.343 µM (active) | GI50 (Malme-3M): > 27.9 µM (inactive) | GI50 (NCI-H226): > 90.2 µM (inactive) | GI50 (NCI-H23): 4.8 µM (inactive) | GI50 (NCI-H460): 2.69 µM (inactive) | GI50 (SF-295): > 85.1 µM (inactive) | GI50 (SK-MEL-5): 47.9 µM (inactive) | GI50 (SR): 2.14 µM (inactive) | GI50 (SW-620): 57.1 µM (inactive) | GI50 (TK-10): > 100 µM (inactive) | GI50 (U-251): 19.4 µM (inactive) | GI50 (UO-31): 5.87 µM (inactive)

COc1ccc2cc(C(=O)c3ccccc3C(=O)O)ccc2c1
GI50 (A498): > 100 µM (inactive) | GI50 (A549): > 100 µM (inactive) | GI50 (CCRF-CEM): > 100 µM (inactive) | GI50 (HCC 2998): > 100 µM (inactive) | GI50 (HT-29): > 100 µM (inactive) | GI50 (IGROV-1): > 100 µM (inactive) | GI50 (KM-20L2): > 100 µM (inactive) | GI50 (MOLT-4): > 100 µM (inactive) | GI50 (Malme-3M): > 100 µM (inactive) | GI50 (NCI-H226): > 100 µM (inactive) | GI50 (NCI-H23): > 100 µM (inactive) | GI50 (NCI-H460): > 100 µM (inactive) | GI50 (SF-295): > 100 µM (inactive) | GI50 (SK-MEL-5): > 100 µM (inactive) | GI50 (SR): > 100 µM (inactive) | GI50 (SW-620): > 100 µM (inactive) | GI50 (TK-10): > 100 µM (inactive) | GI50 (U-251): > 100 µM (inactive) | GI50 (UO-31): > 100 µM (inactive)

CC(=O)NC1C(=O)CC(c2ccccc2)N(C)C1c1ccccc1 (stereo not drawn)
GI50 (A498): > 100 µM (inactive) | GI50 (A549): > 100 µM (inactive) | GI50 (CCRF-CEM): > 100 µM (inactive) | GI50 (HCC 2998): > 100 µM (inactive) | GI50 (HT-29): 78 µM (inactive) | GI50 (IGROV-1): > 100 µM (inactive) | GI50 (KM-20L2): > 100 µM (inactive) | GI50 (MOLT-4): > 100 µM (inactive) | GI50 (Malme-3M): > 100 µM (inactive) | GI50 (NCI-H226): > 100 µM (inactive) | GI50 (NCI-H23): > 100 µM (inactive) | GI50 (NCI-H460): > 100 µM (inactive) | GI50 (SF-295): > 100 µM (inactive) | GI50 (SK-MEL-5): > 100 µM (inactive) | GI50 (SR): > 100 µM (inactive) | GI50 (SW-620): > 100 µM (inactive) | GI50 (TK-10): > 100 µM (inactive) | GI50 (U-251): > 100 µM (inactive) | GI50 (UO-31): 94.8 µM (inactive)
